{
  "source": "patent US20100285509A1",
  "about": "“Melanoma-Associated Endogenous Retrovirus (MERV) Derived Peptide Sequences And Their Therapeutic/Diagnostic Use” (priority 2005, published 2010)",
  "assay_type_in_all_cases": "binding, human",
  "key": {"melanoma sera pool [1]": {"system": "melanoma sera pool", "assay": "Epitope screening ELISA of biotinylated peptides with melanoma sera pool", "conditions": "FIG. 2", "method": "FIG. 2: Selected candidate peptides by Epitope prediction were tested with a melanoma sera pool and a reference sera pool respectively. The mouse derived control peptides K1 (Biotin-SGSG-KPLAQ-NH2) and K2 (Biotin-SGSG-GLAQ-NH2) were used as negative and positive control peptides. ELISA readout of patient sera pool (black bars) given as absorbance determined at 405 nm. All given A405 nm values refer to the measured A405 nm value of each sample minus the blank.\nSerum specimens were collected from melanoma patients (diagnosis confirmed by histopathology) at the Department of Dermatology, Medical University of Vienna, Austria. Staging of patients and according classification of sera followed the 2001 US Joint Committee on Cancer guidelines (Balch 2001). Usage of patient sera was approved by the ethical committee of the Medical University of Vienna, confidentially of the study subjects has been protected by respective sample coding. Sera from healthy donors served as negative controls. All sera were stored at −20° C. immediately after blood withdrawal. Melanoma patient derived sera pools and respective reference sera pools from healthy subjects were used for epitope screening and further peptide testing.\nStreptavidin-coated 96-well microtiter plates (Mimotopes Pty Ltd., Australia) were blocked with 200 μl/well of 2% bovine albumine (Sigma-Aldrich) in PBST (PBS [0.1 M sodium phosphate, 0.15 M NaCl, pH 7.0]+0.1% v/v Tween20 (PBST)) over night at 4° C. The wells were then washed four times with PBST and incubated with 100 μl/well of 1:500 diluted biotinylated peptides for 2 hours at room temperature. 2 wells per plate were incubated with PBST in the absence of peptide (blank wells). Plates were washed 4 times with PBST. Subsequently, 100 μl of a melanoma-sera pool, diluted 1:40 in 1% bovine albumine/PBST and a reference serum pool (1:40) were added to each well and incubated for 2 h at room temperature. The plate was washed 4 times with PBST and incubated with 100 μl/well of the secondary antibody: goat anti-human IgG (h+l) antibody alkaline-phosphatase conjugated (BETHYL Laboratories, Inc., USA). Detection antibody was diluted 1:1000 in blocking solution and incubated for 1 hour. After 6 washing steps with PBST, 200 μl of a 1.0 mg/ml p-Nitrophenylphosphat substrate solution in 0.2 M Tris-buffer (Sigma-Aldrich) was added to each well. Absorbance was measured on a BDSL Immunoskan PLUS at 405 nm.\nDuring initial screening of various peptides reactive peptides to the melanoma patient derived sera pool were selected and also validated by determining the reactivity to the reference sera pool obtained from healthy volunteers. […] These peptides were tested to determine the experimental antigenicity."}, "melanoma sera pool [2]": {"system": "melanoma sera pool", "assay": "Peptide testing ELISA, unbiotinylated peptides coated on Nunc Maxisorp F plates", "conditions": "for absorbance (A405 nm): melanoma sera pool dilution 1:50", "method": "FIG. 5: Reactivity of serum antibodies with 2 MERV specfic partial overlapping peptides (GHB-G1 and GHB-H1) and 1 autoimmune-related peptide (GHB-17′) tested with 3 different melanoma-sera and reference sera pool dilutions respectively. An HIV peptide was used as negative control peptide. All given A405 nm values refer to the measured A405 nm value of each sample minus the blank.\nNUNC Maxisorp F plates were coated with 1.0 μg peptide/well in 100 μl coating buffer (0.1 M sodium carbonate buffer, pH 9.5). 1 well per plate was coated with 100 μl of coating buffer without antigen (blank well). Plates were incubated over night at 4° C. Then plates were washed four times with PEST. Unspecific binding sites were blocked with 200 μl/well of 2% bovine albumine (Sigma-Aldrich) in PBST (PBS+0.1% v/v Tween20 (PBST)) for 1 hour at room temperature. The plates were washed 4 times with PBST. For the assay 100 μl/well of three different sera pool-dilutions (1:50, 1:200, 1:1600) diluted in 1% bovine albumine/PBST were added and incubated for 2 h at room temperature. Plates were washed 4 times with PBST and incubated with 100 μl/well of the secondary antibody: goat anti-human IgG (h+l) antibody alkaline-phosphatase conjugated, obtained from BETHYL Laboratories, Inc., USA (detection antibody was diluted 1:1000 in blocking solution) for 1 hour. After additional 6 times washing step with PBST, color was developed with 200 μl/well of a 1.0 mg/ml p-Nitrophenylphosphat substrate solution in 0.2 M Tris-buffer (Sigma-Aldrich). Absorbance was measured on a BDSL Immunoskan PLUS at 405 nm.\nThe peptides were tested with the same sera pools as given for the experiments above. As negative control peptide an HIV-derived peptide ([…]) with 1 μg/well was used.\nHerve et al. characterise retroviral peptides in the context of autoimmune diseases. […] All three peptides were tested with three melanoma sera pool dilutions ([…], 1:200 and 1:1600). Peptides were coated on Nunc Maxisorp F plates and used to capture serum antibodies, which were then detected using goat anti-human IgG antibodies as shown in FIG. 5. […] GHB-G1 gave a signal of 1.50 even at a melanoma: sera pool dilution 1:200."}, "melanoma sera pool [3]": {"system": "melanoma sera pool", "assay": "Epitope mapping ELISA of 25 overlapping env-peptides (FIG. 4)", "conditions": "A405 nm melanoma sera pool minus reference sera pool", "from_the_text": "FIG. 4: Epitope mapping of 25 overlapping env-peptides tested with a patient sera pool and a reference sera pool as described above. The first bar represents amino acid 204-220, the second bar represents amino acid 205-221, etc. Del A405 nm refers to the measured A405 nm values of the melanoma sera pool minus the A405 nm values of the reference sera pool of each peptide. One experiment of two performed is shown. Mean values from duplicate trials are shown.\nStreptavidin-coated 96-well microtiter plates (Mimotopes Pty Ltd., Australia) were blocked with 200 μl/well of 2% bovine albumine (Sigma-Aldrich) in PBST (PBS [0.1 M sodium phosphate, 0.15 M NaCl, pH 7.0]+0.1% v/v Tween20 (PBST)) over night at 4° C. The wells were then washed four times with PBST and incubated with 100 μl/well of 1:500 diluted biotinylated peptides for 2 hours at room temperature. 2 wells per plate were incubated with PBST in the absence of peptide (blank wells). Plates were washed 4 times with PBST. Subsequently, 100 μl of a melanoma-sera pool, diluted 1:40 in 1% bovine albumine/PBST and a reference serum pool (1:40) were added to each well and incubated for 2 h at room temperature. […] Absorbance was measured on a BDSL Immunoskan PLUS at 405 nm. […]"}, "[4]": {"system": "serum samples from melanoma patients", "assay": "Optimised ELISA on individual serum samples from melanoma patients", "conditions": "31 melanoma serum samples; positive = value of 0.39 or above", "method": "NUNC Polysorp F Peptide Immobiliser plates were coated with 0.125 μg peptide/well in 100 μl coating buffer ((0.1 M sodium carbonate buffer, pH 9.5). Plates were incubated over night at 4° C. Plates were then washed four times with PBST and unspecific binding sites were blocked with 200 μl/well of 2% bovine albumine (Sigma-Aldrich) in PBST (PBS+0.1% v/v Tween20 (PBST)) for 1 hour at room temperature. The plates were washed 4 times with PBST. For the assay 100 μl/well of serial-dilutions of the sera (initial dilution 1:200 in 1% bovine albumine/PBST were added and incubated for 2 h at room temperature. Plates were washed 4 times with PEST and incubated with the secondary antibody (100 μl/well). As secondary antibody an alkaline-phosphatase conjugated goat anti-human IgG (h+1) (BETHYL Laboratories, Inc., USA) diluted 1:1000 in blocking solution was used. Incubation period was 1 hour. After another 6 washing steps with PBST, the substrate was added (1.0 mg/ml p-Nitrophenylphosphat Sigma-Aldrich) in 0.2 M Tris-buffer 200 μl/well) Absorbance was measured on a BDSL Immunoskan PLUS at 405 nm.\nFor analysis of serum samples from melanoma patients, Nunc Polysorp Immobilizer Amino plates were used. […] 16 serum samples from healthy individuals served as controls to establish a negative treshold, as calculated by the average absorbance plus three standard deviations. […]"}},
  "note": "Where no end group is shown, it is not given here.",
  "data": [
    {"sequence": "EMQRKAPPRRRRHRNRA (also: biotinylated (site not given here)) [Peptide A1, Env aa 5-21]", "values": [
      {"measurement": "reactivity ranking among the 46 tested peptides", "setting": "melanoma sera pool [1]", "value": "most reactive"}
    ]},
    {"sequence": "FRPKGKPCPKEIPKESK (also: biotinylated (site not given here)) [Peptide H1, Env aa 220-236]", "values": [
      {"measurement": "reactivity ranking among the 46 tested peptides", "setting": "melanoma sera pool [1]", "value": "most reactive"},
      {"measurement": "absorbance (A405 nm)", "setting": "melanoma sera pool [2]; FIG. 5", "value": "above 0.50"}
    ]},
    {"sequence": "PAELQYRPPPESQYGYP (also: biotinylated (site not given here)) [Peptide E3, Gag aa 219-235]", "values": [
      {"measurement": "reactivity ranking among the 46 tested peptides", "setting": "melanoma sera pool [1]", "value": "most reactive"}
    ]},
    {"sequence": "PWGWGEKGISTPRPKIV (also: biotinylated (site not given here)) [Peptide E2, Env aa 312-328]", "values": [
      {"measurement": "reactivity ranking among the 46 tested peptides", "setting": "melanoma sera pool [1]", "value": "most reactive"}
    ]},
    {"sequence": "SYQRSLKFRPKGKPCPKEIP (Melanoma Associated Endogenous Retrovirus) [SEQ ID NO 69, unbiotinylated 20-mer covering peptides 10-13, env aa 213-232]", "values": [
      {"measurement": "reactivity compared to unbiotinylated 17-mer peptide G1", "setting": "melanoma sera pool [2]; unbiotinylated peptides, independent experiment", "value": "did not exhibit a significant improvement"}
    ]},
    {"sequence": "YQRSLKFRPKGKPCPKE (Melanoma Associated Endogenous Retrovirus) [Peptide G1, Env aa 214-230]", "values": [
      {"measurement": "reactivity (Del A405 nm)", "setting": "melanoma sera pool [3]", "value": "lower absorbance in the assay than the three neighbour peptides"},
      {"measurement": "reactivity ranking among the 46 tested peptides", "setting": "melanoma sera pool [1]", "value": "most reactive"},
      {"measurement": "absorbance (A405 nm)", "setting": "melanoma sera pool [2]; FIG. 5", "value": "~1.50"},
      {"measurement": "absorbance signal (A405 nm)", "setting": "melanoma sera pool [2]; melanoma sera pool dilution 1:200, FIG. 5", "value": 1.50},
      {"measurement": "melanoma sera that did not recognise the epitope", "setting": "[4]", "value": 16},
      {"measurement": "melanoma serum samples reacting positive", "setting": "[4]", "value": "15 out of the 31"}
    ]}
  ]
}
